Data set [1] has as its system Phakopsora pachyrhizi. Briefly: Phakopsora pachyrhizi/Soybean/Preventative (Soybean Rust). It counts as in vivo. As to conditions: 288 h.
Data set [2] relates to Monographella nivalis (Microdochium nivale). Briefly: Monographella nivalis (Microdochium nivale)/Liquid Culture (Foot Rot Cereals). In kind it is cell-based. The following applies: liquid culture, compared to untreated control. How it is done: (§1) Conidia of the fungus from cryogenic storage are directly mixed into nutrient broth (PDB potato dextrose broth). After placing a (DMSO) solution of test compound into a microtiter plate (96-well format), the nutrient broth containing the fungal spores is added.

Data set [3] concerns Mycosphaerella arachidis (Cercospora arachidicola). Put plainly: Mycosphaerella arachidis (Cercospora arachidicola)/Liquid Culture (Early Leaf Spot). In kind it is cell-based. As to conditions: liquid culture, compared to untreated control. The method, then:
as §1

The test system of data set [4] is Glomerella lagenarium (Colletotrichum lagenarium). Briefly: Glomerella lagenarium (Colletotrichum lagenarium)/Liquid Culture (Anthracnose). It counts as cell-based. As to conditions: Colletotrichum orbiculare, liquid culture, compared to untreated control.
The subject of data set [5] is Phaeosphaeria nodorum (Septoria nodorum). Briefly: Phaeosphaeria nodorum (Septoria nodorum)/Wheat/Leaf Disc Preventative (Glume Blotch). The following applies: Parastagonospora nodorum, foliar, wheat leaf disc preventative, compared to untreated control. In kind it is in vivo. The method, then:
Wheat leaf segments cv. Kanzler are placed on agar in a multiwell plate (24-well format) and sprayed with the formulated test compound diluted in water. The leaf disks are inoculated with a spore suspension of the fungus 2 days after application. The inoculated test leaf disks are incubated at 20° C. and 75% rh under a light regime of 12 h light/12 h darkness in a climate cabinet and the activity of a compound is assessed as percent disease control compared to untreated when an appropriate level of disease damage appears in untreated check leaf disks (5-7 days after application).

Data set [6] has as its system Blumeria graminis f. sp. tritici (Erysiphe graminis f. sp. tritici). Briefly: Blumeria graminis f. sp. tritici/Wheat/Leaf Disc Preventative (Powdery Mildew on Wheat). It counts as in vivo. As to conditions: foliar, wheat leaf disc preventative, compared to untreated control. The method, then: Wheat leaf segments cv. Kanzler are placed on agar in a multiwell plate (24-well format) and sprayed with the formulated test compound diluted in water. The leaf disks are inoculated by shaking powdery mildew infected plants above the test plates 1 day after application. The inoculated leaf disks are incubated at 20° C. and 60% rh under a light regime of 24 h darkness followed by 12 h light/12 h darkness in a climate chamber and the activity of a compound is assessed as percent disease control compared to untreated when an appropriate level of disease damage appears on untreated check leaf segments (6-8 days after application).

Data set [7] has as its system Mycosphaerella graminicola (Septoria tritici). Put plainly: Mycosphaerella graminicola (Septoria tritici)/Liquid Culture (Septoria Blotch). In kind it is cell-based. As to conditions: Zymoseptoria tritici; for inhibition of growth at 20 ppm: liquid culture, compared to untreated control. The method, then:
Conidia of the fungus from cryogenic storage are directly mixed into nutrient broth (PDB potato dextrose broth). After placing a (DMSO) solution of test compound into a microtiter plate (96-well format), the nutrient broth containing the fungal spores is added. […] The data are presented as the percentage of disease control of each compound for the biological tests against G. lagenarium (Example B3), P. recondita preventative (Example B13), P. teres (Example B15) and M. graminicola (Example B19) as described above. The testing rates of each biological test is specifically described in table C1 below.

For data set [8], the system named is Puccinia recondita f. sp. tritici. Briefly: Puccinia recondita f. sp. tritici/Wheat/Leaf Disc Preventative (Brown Rust). In kind it is in vivo. As to conditions: foliar; for pest or weed control at 200 ppm: wheat leaf disc preventative, compared to untreated control, read-out: control of Puccinia recondita f. sp. tritici.
The subject of data set [9] is Plasmopara viticola. Put plainly: whole plant or invertebrate. As to conditions: foliar, read-out: control of Plasmopara viticola. In kind it is in vivo.
For data set [10], the system named is Magnaporthe grisea (Pyricularia oryzae). Briefly: whole plant or invertebrate. As to conditions: foliar, read-out: control of Magnaporthe grisea. In kind it is in vivo.
In data set [11] the test system is Phytophthora infestans. Briefly: whole plant or invertebrate. The following applies: in Solanum lycopersicum, foliar, read-out: control of Phytophthora infestans. In kind it is in vivo.
The mark [12] stands for this setting: Phakopsora pachyrhizi (Soybean rust).
Where [13] appears, read: Phakopsora pachyrhizi (Soybean rust), read-out: control (%).
The mark [14] stands for this setting: foliar, soybean leaf disc preventative, compared to untreated control, read-out: control of Phakopsora pachyrhizi.

Where two headings read alike, the source gives them in different places.

Data on 15 compounds can be found in US12043600B2, “Microbiocidal compounds” (SYNGENTA CROP PROTECTION AG, priority 2018, dated 2024).

For the compound `CO/C=C(\Oc1cc(-n2cccc2)ccc1C)C(=O)OC` [Compound X-2, reference compound], in data set [1] (setting [12]), the pest or weed control at 0.6 ppm was 0%, the pest or weed control at 2 ppm came to 0%, the pest or weed control at 6 ppm turned out to be 0% and the pest or weed control at 20 ppm amounted to 0%. The compound also came in with a pest or weed control at 60 ppm in data set [1] (setting [12]) of 70%. Further, in data set [1] (setting [13]), the pest or weed control at 200 ppm stood at 100%.

With `CO/C=C(\Oc1cc(-n2ccc(Br)n2)ccc1Br)C(=O)OC` [Compound E-84, methyl (Z)-2-[2-bromo-5-(3-bromopyrazol-1-yl)phenoxy]-3-methoxy-prop-2-enoate], the inhibition of growth at 20 ppm in data set [2], in [3], in [4] and in data set [7] was at least 80% each time. Also, the pest or weed control at 200 ppm in data set [5] is at least 80%; in [6], at least 80%; in data set [8], at least 80%; in [9] it was at least 80%; in data set [1] (setting [14]) it was at least 50%.

On to `CCCOc1ccn(-c2ccc(C)c(O/C(=C\OC)C(=O)OC)c2)n1` [Compound E-13, methyl (Z)-3-methoxy-2-[2-methyl-5-(3-propoxypyrazol-1-yl)phenoxy]prop-2-enoate], for which the melting point lay in the range of 85 to 87 °C.

For the compound `CCc1ccc(-n2ccc(C)n2)cc1O/C(=C\OC)C(=O)OC` [Compound E-107, methyl (Z)-2-[2-ethyl-5-(3-methylpyrazol-1-yl)phenoxy]-3-methoxy-prop-2-enoate], the melting point lay in the range of 169 to 171 °C. Further, the inhibition of growth at 20 ppm in data set [7] was at least 80%. Besides, the pest or weed control at 200 ppm in data set [8] is at least 80%.

As for `CO/C=C(\Oc1cccc(-n2ccc(C)n2)c1)C(=O)OC` [Compound E-9, methyl (Z)-3-methoxy-2-[3-(3-methylpyrazol-1-yl)phenoxy]prop-2-enoate], the inhibition of growth at 20 ppm in data set [2], in data set [3] and in data set [7] was at least 80% in each case.

On to `CO/C=C(\Oc1cc(-n2cc(Br)c(C3CCCCC3)n2)ccc1C)C(=O)OC` [Compound E-10, methyl (Z)-2-[5-(4-bromo-3-cyclohexyl-pyrazol-1-yl)-2-methyl-phenoxy]-3-methoxy-prop-2-enoate], for which the melting point was 120 to 126 °C. Besides, the inhibition of growth at 20 ppm in data set [2] is at least 80%. Besides, in data set [3], the inhibition of growth at 20 ppm is at least 80%. The inhibition of growth at 20 ppm in [7] is at least 80%. The pest or weed control at 200 ppm in data set [10] was at least 80%.

In the case of `CO/C=C(\Oc1cccc(-n2ccc(C3CC3)n2)c1)C(=O)OC` [Compound E-14, methyl (Z)-2-[3-(3-cyclopropylpyrazol-1-yl)phenoxy]-3-methoxy-prop-2-enoate], the inhibition of growth at 20 ppm in [2], in [3], in data set [4] and in data set [7] was at least 80% each time.

`CO/C=C(\Oc1cc(-n2ccc(C)n2)ccc1C1CC1)C(=O)OC` [Compound E-106, methyl (Z)-2-[2-cyclopropyl-5-(3-methylpyrazol-1-yl)phenoxy]-3-methoxy-prop-2-enoate] had a melting point of 189 to 191 °C. In addition, the pest or weed control at 200 ppm in data set [8] is at least 80%. In data set [9], the pest or weed control at 200 ppm was at least 80%.

The compound `CO/C=C(\Oc1cc(-n2ccc(C(F)(F)F)n2)cc(F)c1C)C(=O)OC` [Compound E-3, methyl (Z)-2-[3-fluoro-2-methyl-5-[3-(trifluoromethyl)pyrazol-1-yl]phenoxy]-3-methoxy-prop-2-enoate] returned a melting point of 133 to 135 °C. For the same compound, in [2], the inhibition of growth at 20 ppm is at least 80%. The compound also registered an inhibition of growth at 20 ppm in data set [3] of at least 80%. This compound also showed a pest or weed control at 200 ppm in [5] of at least 80%. This compound also showed a pest or weed control at 200 ppm in data set [6] of at least 80%. In addition, the inhibition of growth at 20 ppm in [7] is at least 80%. In addition, the pest or weed control at 200 ppm in data set [11] was at least 80%. Further, in data set [8], the pest or weed control at 200 ppm was at least 80%. Further, the pest or weed control at 200 ppm in [9] is at least 80%. Further, the pest or weed control at 200 ppm in data set [1] (setting [14]) is at least 50%.

With `CCCc1ccn(-c2ccc(C)c(O/C(=C\OC)C(=O)OC)c2)n1` [drawing 151], in data set [7] (M. graminicola (B19), 6 ppm, read-out: Disease control (%)), the inhibition of growth at 6 ppm turned out to be 100%. Also, the pest or weed control at 60 ppm in [8] (P. recondita prev (B13), 60 ppm, read-out: Disease control (%)) is 70%.

Turning to `CO/C=C(\Oc1cc(-n2ccc(CSC)n2)ccc1C)C(=O)OC` [Compound E-76, methyl (Z)-3-methoxy-2-[2-methyl-5-[3-(methylsulfanylmethyl)pyrazol-1-yl]phenoxy]prop-2-enoate], the melting point lay within 78 to 80 °C. In data set [2], this compound displayed an inhibition of growth at 20 ppm of at least 80%. In addition, the inhibition of growth at 20 ppm in data set [3] is at least 80%. This compound showed an inhibition of growth at 20 ppm in data set [7] of at least 80%. For the same compound, in data set [11], the pest or weed control at 200 ppm was at least 80%. The pest or weed control at 200 ppm in data set [8] is at least 80%. In addition, the pest or weed control at 200 ppm in [9] is at least 80%. Also, the pest or weed control at 200 ppm in [10] is at least 80%.

Turning to `CCC(CC)c1ccn(-c2ccc(C)c(O/C(=C\OC)C(=O)OC)c2)n1` [Compound E-4, methyl (Z)-2-[5-[3-(1-ethylpropyl)pyrazol-1-yl]-2-methyl-phenoxy]-3-methoxy-prop-2-enoate], the melting point fell in the range of 108 to 111 °C. In [2], this compound gave an inhibition of growth at 20 ppm of at least 80%. The compound also yielded an inhibition of growth at 20 ppm in data set [3] of at least 80%. This compound had a pest or weed control at 200 ppm in data set [5] of at least 80%. This compound also showed a pest or weed control at 200 ppm in data set [6] of at least 80%. The inhibition of growth at 20 ppm in data set [7] is at least 80%. Moreover, the pest or weed control at 200 ppm in data set [11] is at least 80%. In addition, in [8], the pest or weed control at 200 ppm is at least 80%. The pest or weed control at 200 ppm in [1] (setting [14]) is at least 50%.

For the compound `CO/C=C(\Oc1cc(-c2cccc(C(F)(F)F)n2)ccc1C)C(=O)OC` [Compound X-3, reference compound], in data set [1] (setting [12]), the pest or weed control at 0.6 ppm turned out to be 0%, the pest or weed control at 2 ppm came to 0%, the pest or weed control at 6 ppm amounted to 0% and the pest or weed control at 20 ppm was 10%. The pest or weed control at 60 ppm in data set [1] (setting [12]) was 50%. Besides, in data set [1] (setting [13]), the pest or weed control at 200 ppm came to 85%.

In the case of `CO/C=C(\Oc1cc(-n2cc(Cl)c(Cl)n2)ccc1C)C(=O)OC` [Compound E-111, methyl (Z)-2-[5-(3,4-dichloropyrazol-1-yl)-2-methyl-phenoxy]-3-methoxy-prop-2-enoate], the melting point lay in the range of 140 to 144 °C. Further, the inhibition of growth at 20 ppm in [2] was at least 80%. In data set [3], this compound had an inhibition of growth at 20 ppm of at least 80%. Moreover, the inhibition of growth at 20 ppm in data set [4] is at least 80%. Also, the pest or weed control at 200 ppm in data set [5] was at least 80%. The same compound registered a pest or weed control at 200 ppm in data set [6] of at least 80%. For the same compound, the pest or weed control at 200 ppm in [9] is at least 80%.

In turn, `CO/C=C(\Oc1cc(-n2ccc(C(F)(F)F)n2)cc(OC)c1C)C(=O)OC` [Compound E-22, methyl (Z)-3-methoxy-2-[3-methoxy-2-methyl-5-[3-(trifluoromethyl)pyrazol-1-yl]phenoxy]prop-2-enoate] registered a melting point of 153 to 156 °C. The same compound registered an inhibition of growth at 20 ppm in data set [2] of at least 80%. In addition, in [3], the inhibition of growth at 20 ppm is at least 80%. For the same compound, in [6], the pest or weed control at 200 ppm is at least 80%. The inhibition of growth at 20 ppm in data set [7] was at least 80%. Besides, in data set [11], the pest or weed control at 200 ppm was at least 80%. The pest or weed control at 200 ppm in [8] was at least 80%.
